Measured values reported in ChEMBL document CHEMBL6153132 (J Med Chem, 2025).
pIC50: −log10 of the molar value. Calls of active or inactive are those of the source. The calls are words filed in the database; no cut-off is given here.

What was measured:
Histone deacetylase 1 = Histone deacetylase 1 (Homo sapiens, UniProt Q13547); assay: Inhibition of human HDAC1 using ZMAL(Z-Lys(Ac)-AMC as substrate preincubated for 60 mins followed by substrate addition and measured after 90 mins by microplate reader analysis
[1] = molecular target: T1, Protein deacetylase HDAC6 (Homo sapiens, UniProt Q9UBN7); assay: Inhibition of human HDAC6 using ZMAL(Z-Lys(Ac)-AMC as substrate preincubated for 15 mins followed by substrate addition and measured after 90 mins by microplate reader analysis
T1 sequence (Q9UBN7 whole entry): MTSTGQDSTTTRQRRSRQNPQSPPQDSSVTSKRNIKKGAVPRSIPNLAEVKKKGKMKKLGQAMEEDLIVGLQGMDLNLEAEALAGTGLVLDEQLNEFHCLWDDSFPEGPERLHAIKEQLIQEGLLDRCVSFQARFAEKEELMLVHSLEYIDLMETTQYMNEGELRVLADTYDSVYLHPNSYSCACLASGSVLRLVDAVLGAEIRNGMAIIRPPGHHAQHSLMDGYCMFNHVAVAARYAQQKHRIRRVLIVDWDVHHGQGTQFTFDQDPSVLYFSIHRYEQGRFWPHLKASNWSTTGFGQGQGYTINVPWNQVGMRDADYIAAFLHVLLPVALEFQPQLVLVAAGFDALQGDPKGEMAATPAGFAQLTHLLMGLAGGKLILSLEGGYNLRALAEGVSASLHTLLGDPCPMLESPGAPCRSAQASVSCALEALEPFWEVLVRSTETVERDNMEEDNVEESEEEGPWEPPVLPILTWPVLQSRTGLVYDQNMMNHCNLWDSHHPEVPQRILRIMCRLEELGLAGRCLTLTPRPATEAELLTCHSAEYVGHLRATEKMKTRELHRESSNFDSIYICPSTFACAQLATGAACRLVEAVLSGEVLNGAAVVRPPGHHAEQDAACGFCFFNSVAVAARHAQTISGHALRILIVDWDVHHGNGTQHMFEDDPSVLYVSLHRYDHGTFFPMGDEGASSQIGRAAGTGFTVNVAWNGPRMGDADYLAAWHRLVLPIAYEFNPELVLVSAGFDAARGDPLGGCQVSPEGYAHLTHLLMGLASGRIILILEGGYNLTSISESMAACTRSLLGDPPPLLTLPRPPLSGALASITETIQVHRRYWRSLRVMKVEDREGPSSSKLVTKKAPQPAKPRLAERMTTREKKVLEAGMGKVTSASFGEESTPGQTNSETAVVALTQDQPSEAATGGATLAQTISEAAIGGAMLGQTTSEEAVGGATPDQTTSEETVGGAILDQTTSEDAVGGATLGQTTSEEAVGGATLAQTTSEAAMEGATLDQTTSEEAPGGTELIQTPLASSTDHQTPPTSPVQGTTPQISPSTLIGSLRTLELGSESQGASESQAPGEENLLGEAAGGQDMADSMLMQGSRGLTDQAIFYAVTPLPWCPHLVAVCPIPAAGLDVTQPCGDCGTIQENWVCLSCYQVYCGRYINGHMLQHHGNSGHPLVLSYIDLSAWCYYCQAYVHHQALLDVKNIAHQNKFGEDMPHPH

CAL-27 [2] = assay: cells; details: Homo sapiens, CAL-27, 72 h
cells = details: Homo sapiens, Cal27CisR, 72 h
Plasmodium falciparum [3] = assay: microbe, parasite or virus in culture; details: 3D7, 72 h
Plasmodium falciparum [4] = assay: microbe, parasite or virus in culture; details: Dd2, 72 h
Histone deacetylase 3 = Histone deacetylase 3 (Homo sapiens, UniProt O15379); assay: Inhibition of human HDAC3 using ZMAL(Z-Lys(Ac)-AMC as substrate preincubated for 60 mins followed by substrate addition and measured after 90 mins by microplate reader analysis
[5] = Metabolic stability in human liver microsome assessed as half life; format: ADME, microsomes
[6] = Metabolic stability in human liver microsome assessed as intrinsic clearance; format: ADME; details: microsomes
A2780 = assay: Cytotoxicity against human A2780 cells assessed as cell viability incubated for 72 hrs by MTS assay; format: functional, cell-based; details: A2780, 72 h
A2780cisR = assay: Cytotoxicity against human A2780 cisR cells assessed as cell viability up to 100 uM incubated for 72 hrs by MTS assay; format: functional, cell-based
CAL-27 [7] = assay: Cytotoxicity against human CAL-27 cells assessed as cell viability incubated for 72 hrs by MTS assay; format: functional, cell-based; details: CAL-27, 72 h
[8] = Cytotoxicity against human Cal27CisR cells assessed as cell viability incubated for 72 hrs by MTS assay; format: functional, cell-based

Sequence of Histone deacetylase 1 (Q13547 whole entry): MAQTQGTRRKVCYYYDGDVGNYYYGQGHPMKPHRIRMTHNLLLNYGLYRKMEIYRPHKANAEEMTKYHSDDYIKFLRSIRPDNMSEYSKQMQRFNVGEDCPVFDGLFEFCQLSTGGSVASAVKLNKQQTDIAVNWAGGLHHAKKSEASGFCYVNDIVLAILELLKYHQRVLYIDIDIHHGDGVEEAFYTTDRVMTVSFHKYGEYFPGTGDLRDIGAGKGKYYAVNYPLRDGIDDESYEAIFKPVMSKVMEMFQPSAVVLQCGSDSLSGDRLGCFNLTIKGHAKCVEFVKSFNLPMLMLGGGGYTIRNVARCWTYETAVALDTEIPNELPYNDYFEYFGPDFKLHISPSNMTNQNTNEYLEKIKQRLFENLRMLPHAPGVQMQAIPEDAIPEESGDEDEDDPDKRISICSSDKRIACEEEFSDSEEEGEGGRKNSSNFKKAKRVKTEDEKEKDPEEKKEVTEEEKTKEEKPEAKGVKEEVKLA
Sequence of Histone deacetylase 3 (O15379 whole entry): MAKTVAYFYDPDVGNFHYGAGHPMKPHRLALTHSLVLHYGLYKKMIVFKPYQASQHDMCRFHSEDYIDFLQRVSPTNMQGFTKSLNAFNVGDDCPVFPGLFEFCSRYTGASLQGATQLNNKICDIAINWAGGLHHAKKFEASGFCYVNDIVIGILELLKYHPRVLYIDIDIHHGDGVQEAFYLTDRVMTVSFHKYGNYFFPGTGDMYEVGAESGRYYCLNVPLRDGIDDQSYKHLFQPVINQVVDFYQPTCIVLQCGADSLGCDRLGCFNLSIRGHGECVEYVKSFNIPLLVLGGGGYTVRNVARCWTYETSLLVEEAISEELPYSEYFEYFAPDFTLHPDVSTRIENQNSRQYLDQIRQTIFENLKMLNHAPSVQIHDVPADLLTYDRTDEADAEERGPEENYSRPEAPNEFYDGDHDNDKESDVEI

SMILES | pIC50 (Histone deacetylase 1) | pIC50 [1] | pIC50 (CAL-27 [2]) | pIC50 (cells) | pIC50 (Plasmodium falciparum [3]) | pIC50 (Plasmodium falciparum [4]) | pIC50 (Histone deacetylase 3) | t1/2 ([5]; microsomes) [min] | CLH [6] [µL/min/mg] | half-life ([5]; liver microsomes) [min] | pIC50 (A2780) | Activity (A2780cisR) | pIC50 (CAL-27 [7]) | pIC50 [8]
CN(C)c1ccc(C(=O)N(CC(=O)NCc2ccccc2)Cc2ccc(C(=O)NCCSSCCNC(=O)c3ccc(CN(CC(=O)NCc4ccccc4)C(=O)c4ccc(N(C)C)cc4)cc3)cc2)cc1 | 5.34 | < 5.00 | < 4.00 | < 4.00 | < 4.00 | < 4.00 |  |  |  |  |  |  |  | 
CSc1ccccc1C(=O)NCCCCCCN(CC(=O)NCc1ccccc1)C(=O)c1ccc(N(C)C)cc1 | < 5.00 | < 5.00 | 4.16 | 4.18 | 5.05 | 5.18 | < 5.00 |  |  |  |  |  |  | 
CSc1ccccc1NC(=O)CCCCCN(CC(=O)NCc1ccccc1)C(=O)c1ccc(N(C)C)cc1 | < 5.00 | < 5.00 | 4.10 | 4.21 | 4.24 | 4.54 | < 5.00 |  |  |  |  |  |  | 
CN(C)c1ccc(C(=O)N(CC(=O)NCc2ccccc2)Cc2ccc(-c3nnc(C(F)(F)F)o3)cc2)cc1 | < 5.00 | < 5.00 | < 4.00 | < 4.00 | 4.47 | 4.43 |  |  |  |  |  |  |  | 
CN(C)c1ccc(C(=O)N(CCCCCC(=O)O)CC(=O)NCc2ccccc2)cc1 | < 5.00 | < 5.00 | < 4.00 | < 4.00 | < 4.00 | < 4.00 |  |  |  |  |  |  |  | 
CC(=O)SCC(=O)NCCCCCCN(CC(=O)NCc1ccccc1)C(=O)c1ccc(N(C)C)cc1 |  |  | 4.48 | 4.54 | < 4.00 | 4.07 |  |  |  |  |  |  |  | 
CCCNNC(=O)c1ccc(CN(CC(=O)NCc2ccccc2)C(=O)c2ccc(N(C)C)cc2)cc1 |  |  |  |  |  |  |  | 15.04 | 92.2 |  |  |  |  | 
CN(C)c1ccc(C(=O)N(CCCCCC(=O)NCCSSCCNC(=O)CCCCCN(CC(=O)NCc2ccccc2)C(=O)c2ccc(N(C)C)cc2)CC(=O)NCc2ccccc2)cc1 | 5.15 | < 5.00 | 4.01 | < 4.00 | 4.93 | < 4.00 |  |  |  |  |  |  |  | 
CSc1ccccc1C(=O)NCCCCCCCN(CC(=O)NCc1ccccc1)C(=O)c1ccc(N(C)C)cc1 | < 5.00 | < 5.00 | 4.15 | < 4.00 | 4.46 | 4.64 | < 5.00 |  |  |  |  |  |  | 
CSc1ccccc1C(=O)Nc1ccc(CN(CC(=O)NCc2ccccc2)C(=O)c2ccc(N(C)C)cc2)cc1 | < 5.00 | < 5.00 | < 4.00 | < 4.00 | < 4.00 |  | < 5.00 |  |  |  |  |  |  | 
CN(C)c1ccc(C(=O)N(CC(=O)NCc2ccccc2)Cc2ccc(-c3nnc(C(F)F)o3)cc2)cc1 | < 5.00 | < 5.00 | < 4.00 | < 4.00 | 4.74 | 4.63 |  |  |  |  |  |  |  | 
CN(C)c1ccc(C(=O)N(CC(=O)NCc2ccccc2)Cc2ccc(C(=O)Nc3ccccc3N)cc2)cc1 |  |  |  |  |  |  |  |  | 79.4 | 17.5 |  |  |  | 
CN(C)c1ccc(C(=O)N(CCCCCCNC(=O)c2ccccc2O)CC(=O)NCc2ccccc2)cc1 | < 5.00 | < 5.00 |  | < 4.00 |  |  |  |  |  |  |  |  |  | 
CNC(=O)CCCCCN(CC(=O)NCc1ccccc1)C(=O)c1ccc(N(C)C)cc1 | < 5.00 | < 5.00 | < 4.00 | < 4.00 | < 4.00 | < 4.00 |  |  |  |  |  |  |  | 
Nc1cc(F)ccc1NC(=O)/C=C/c1cnn(C/C=C/c2ccccc2)c1 |  |  |  |  |  |  |  |  |  |  | 4.89 | inactive | 4.37 | 4.31
CN(C)c1ccc(C(=O)N(CC(=O)NCc2ccccc2)Cc2ccc(C(=O)O)cc2)cc1 | 4.86 | < 5.00 | 4.13 | < 4.00 | < 4.00 | < 4.00 |  |  |  |  |  |  |  | 
CSc1ccccc1C(=O)NCCCCCN(CC(=O)NCc1ccccc1)C(=O)c1ccc(N(C)C)cc1 | < 5.00 | < 5.00 | 4.20 | 4.26 |  | 4.42 | < 5.00 |  |  |  |  |  |  | 
CC(=O)SCC(=O)Nc1ccc(CN(CC(=O)NCc2ccccc2)C(=O)c2ccc(N(C)C)cc2)cc1 |  |  | < 4.00 | < 4.00 | < 4.00 | < 4.00 |  |  |  |  |  |  |  | 
